From patent publication US8404694B2, “Aurora kinase modulators and method of use” (Amgen Inc., priority 2008, dated 2013) come the findings set out here.

By EC50 is commonly meant the concentration needed to bring the measured effect to its halfway point.

One test addresses T1, AuroraA-TPX2 (Homo sapiens, UniProt O14965).
T1 construct: 20 μL of AuroraA-TPX2 KD GST; GST
T1 sequence (O14965 133-383 limits assumed): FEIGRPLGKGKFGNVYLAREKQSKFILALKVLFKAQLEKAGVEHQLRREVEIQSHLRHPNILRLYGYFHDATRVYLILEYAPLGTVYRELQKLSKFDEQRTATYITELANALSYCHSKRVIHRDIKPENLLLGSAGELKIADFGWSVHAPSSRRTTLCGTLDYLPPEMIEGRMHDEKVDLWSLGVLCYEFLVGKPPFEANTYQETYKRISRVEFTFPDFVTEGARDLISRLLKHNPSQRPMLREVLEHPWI
T1 sequence (Q9ULW0 1-747 partner): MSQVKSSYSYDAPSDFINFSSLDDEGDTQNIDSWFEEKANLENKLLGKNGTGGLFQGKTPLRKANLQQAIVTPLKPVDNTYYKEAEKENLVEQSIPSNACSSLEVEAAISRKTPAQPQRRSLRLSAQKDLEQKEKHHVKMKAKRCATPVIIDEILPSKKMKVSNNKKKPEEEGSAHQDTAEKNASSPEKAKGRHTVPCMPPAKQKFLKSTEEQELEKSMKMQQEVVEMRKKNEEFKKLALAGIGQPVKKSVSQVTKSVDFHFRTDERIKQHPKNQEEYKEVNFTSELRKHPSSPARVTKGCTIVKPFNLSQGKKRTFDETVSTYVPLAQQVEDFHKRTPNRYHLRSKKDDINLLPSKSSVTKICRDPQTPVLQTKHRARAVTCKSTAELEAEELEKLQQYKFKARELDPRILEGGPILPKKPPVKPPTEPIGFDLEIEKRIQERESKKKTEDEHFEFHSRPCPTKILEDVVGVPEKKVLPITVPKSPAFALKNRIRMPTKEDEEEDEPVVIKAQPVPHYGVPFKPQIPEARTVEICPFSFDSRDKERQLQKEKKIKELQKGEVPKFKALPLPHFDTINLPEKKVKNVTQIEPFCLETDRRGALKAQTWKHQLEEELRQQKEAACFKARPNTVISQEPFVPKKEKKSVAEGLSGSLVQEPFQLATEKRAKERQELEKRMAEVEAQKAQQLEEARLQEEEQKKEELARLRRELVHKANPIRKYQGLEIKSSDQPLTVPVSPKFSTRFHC
Briefly: AuroraA-TPX2 Homogeneous Time Resolved Fluorescent (HTRF) kinase assay. Type of test: biochemical. As to conditions: ATP about 1 μM, biotinylated PLK peptide, read-out: AurA_IC50—IP (Avg). As for the experimental part: AuroraA-TPX2-Homogeneous Time Resolved Fluorescent (HTRF) Kinase Assay:
The Aurora-A HTRF assay begins with Aurora-A in the presence of ATP phosphorylating the biotinylated peptide PLK. The reaction incubates for about 120 min. Detection reagents are added to quench the reaction. These agents stop the reaction by diluting out the enzyme and chelating the metals due to the presence of EDTA. After addition, the assay is incubated overnight to allow the detection reagents to equilibrate.
The AuroraA HTRF assay comprises 1 μL of compound in 100% DMSO, 20 μL of ATP and biotinylated PLK, and 20 μL of AuroraA-TPX2 KD GST for a final volume of about 41 μL. The final concentration of PLK is about 1 μM. The final concentration of ATP is about 1 μM (Km(app)=1 μM+/−0.1) and the final concentration of AuroraA is about 5 nM. Buffer conditions are as follows: 60 mM HEPES pH 7.5, 25 mM NaCl, 10 mM MgCl, 2 mM DTT, 0.05% BSA.
The assay is quenched and stopped with 160 μL of detection reagent. Detection reagents are as follows: Buffer made of 50 mM Tris, pH 7.5, 100 mM NaCl, 3 mM EDTA, 0.05% BSA, 0.1% Tween20. Added to this buffer prior to reading is Steptavidin allophycocyanin (SA-APC) at a final conc in the assay of 0.0005 mg/mL, and europilated anti-phosphoPLK Ab (Eu-anti-PLK) at a final conc of 0.02 nM.
The assay plate is read in either a Discovery or a RubyStar. The eu-anti-PLK is excited at 320 nm and emits at 615 nm to excite the SA-APC which in turn emits at 655 nm. The ratio of SA-APC at 655 nm (excited due to close proximity to the Eu-anti-PLK because of phosphorylation of the peptide) to free Eu-anti-PLK at 615 nm will give substrate phosphorylation.
(§1) Many of the Examples described herein were tested, and found to be active compounds. Table I includes related biological data, which may be interpreted using the activity gauge below: […]
Background: TR-FRET usually uses a lanthanide donor and a delayed reading to cut background.

For another test, the target named is T2, AuroraB (Homo sapiens, UniProt Q96GD4).
T2 construct: 20 μL of AuroraB FL His; His
T2 sequence (Q96GD4 whole entry): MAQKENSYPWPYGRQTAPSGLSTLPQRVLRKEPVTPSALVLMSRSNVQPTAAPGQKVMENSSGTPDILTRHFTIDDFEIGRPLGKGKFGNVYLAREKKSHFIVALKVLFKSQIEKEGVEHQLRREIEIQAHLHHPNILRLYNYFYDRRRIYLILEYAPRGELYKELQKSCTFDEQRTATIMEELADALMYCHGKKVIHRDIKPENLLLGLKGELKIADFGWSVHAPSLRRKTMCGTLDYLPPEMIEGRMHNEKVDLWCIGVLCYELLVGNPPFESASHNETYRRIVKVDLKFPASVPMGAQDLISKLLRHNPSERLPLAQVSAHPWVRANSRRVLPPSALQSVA
Briefly: AuroraB Homogeneous Time Resolved Fluorescent (HTRF) kinase assay. As to conditions: ATP 23 μM, biotinylated Histone H3 peptide, read-out: AurB_IC50—IP (Avg). Type of test: biochemical. As to the method:
AuroraB-Homogeneous Time Resolved Fluorescent (HTRF) Kinase Assay:
The AuroraB HTRF assay begins with AuroraB in the presence of ATP phosphorylating the biotinylated peptide Histone H3. The reaction incubates for about 90 min. the reaction is quenched by addition of detection reagents, which stop the reaction by diluting out the enzyme and chelating the metals due to the presence of EDTA. After addition, the assay is incubated for about 60 min to allow detection reagents to equilibrate.
The AuroraB HTRF assay comprises 1 μL of compound in 100% DMSO, 20 μL of ATP and biotinylated Histone H3, and 20 μL of AuroraB FL His for a final volume of 41 μL. The final concentration of Histone H3 is 0.1 μM. The final concentration of ATP is 23 μM (Km(app)=23 μM+/−2.6) and the final concentration of AuroraB is 400 pM. Buffer conditions are as follows: 50 mM HEPES pH 7.5, 5 mM NaCl, 0.5 mM MgCl, 0.5 mM MnCl, 2 mM DTT, 0.05% BSA.
The assay is quenched and stopped with 160 μL of detection reagent. Detection reagents are as follows: Buffer made of 50 mM Tris, pH 7.5, 100 mM NaCl, 3 mM EDTA, 0.05% BSA, 0.1% Tween20. Added to this buffer prior to reading is Steptavidin allophycocyanin (SA-APC) at a final conc in the assay of 0.001 mg/mL, and europilated anti-phosphoHistoneH3 Ab (Eu-anti-His H3) at a final conc of 0.064 nM.
The assay plate is read in either a Discovery or a RubyStar. The eu-anti-His H3 is excited at 320 nm and emits at 615 nm to excite the SA-APC which in turn emits at 655 nm. The ratio of SA-APC at 655 nm (excited due to close proximity to the Eu-anti-His H3 because of phosphorylation of the peptide) to free Eu-anti-His H3 at 615 nm will give substrate phosphorylation.
as §1

The next test concerns HeLa cells. The test is described as follows: HeLa cell 24 hr ploidy assay. The note with it: Homo sapiens, 24 hrs treatment, DNA content (ploidy), read-out: 24 h_4N Ploidy EC50—IP (Avg). Type of test: cell-based. As to the method:
HeLa Cell 24 hr Ploidy Assay Protocol
The purpose of this assay is to evaluate the ability of selected individual compounds to induce Deoxyribonucleic acid (DNA) content (ploidy) in cells thought failed cell division. Cell cycle analysis is a rapid and efficient way to evaluate the status of DNA content (ploidy) of a given cell. HeLa cells (1×10^4 HeLa cells/well) in 100 ul of media (MEM+10% FBS) were plated in 96-well plates (Packard View) and cultured for 24 hrs at 37° C. maintained in a 5% CO2 atmosphere. The following day, cells were treated for 24 hrs with inhibitor compounds (10 pt. Dose ranging from 0.0024-1.25 umol/L). The compounds were serially diluted in DMSO (0.25% final concentration). The cells were fixed (3.7% Formaldehyde and 1% glutaraldehyde) and permeabilized (1×PBS with 1% BSA and 0.2% Triton X-100) in preparation for nuclear staining. The well plates were stained for 45 minutes at RT in the dark using Hoechest 33342 nuclear stain at 0.5 ug·ml (Stock of 10 mg/ml, Invitrogen, CA, Cat # H3570). The nuclear stain was removed by aspiration and the cells were washed with wash buffer. A Cellomics Array Scan Vti plate reader was used to acquire the DNA ploidy data of the cells using Cell Cycle bioapplication. Numbers for each of “valid cell count/well”, “% of 4N cells” and “% of >4Ncells” were calculated with the assistance of an Activity Base 5.1ca software and dose curves were generated using an XLFit software. With XLFit, final EC50 IP and EC50 transit values, as well as the Max and Min, were calculated for each curve. Many of the Examples described herein were tested, and fund to be active compounds. Table I includes related biological data in the 24 h cell-ploidy content assay, which may be interpreted using the activity gauge below: […]

SMILES strings stand for the structures.

For the compound `Clc1ccc(-c2nnc(Nc3ccc(Sc4ncnn5ccc(Cl)c45)cc3)c3ccccc23)cc1` [Example 7, 4-(4-Chlorophenyl)-N-(4-(5-chloropyrrolo[1,2-f][1,2,4]triazin-4-ylthio)phenyl)phthalazin-1-amine], the values for the IC50 at AuroraA-TPX2 and on AuroraB were over 2500 nM and under 100 nM, respectively. For the same compound, the EC50 in the test with HeLa cells fell in the range of 100 to 500 nM.

Turning to `COCCOc1cc2nccc(Sc3ccc(Nc4nnc(-c5cc(C)cs5)c5ccccc45)cc3)n2n1` [Example 28, N-(4-((2-((2-(methyloxy)ethyl)oxy)pyrazolo[1,5-a]pyrimidin-7-yl)thio)phenyl)-4-(4-methyl-2-thienyl)-1-phthalazinamine], the IC50 at AuroraA-TPX2 and at AuroraB was under 100 nM each time. In addition, the EC50 in the test with HeLa cells was under 100 nM.

As for `Cc1ccc(-c2nnc(Nc3ccc(Sc4ccnc5ccnn45)cc3)c3ccccc23)nc1` [Example 21, 4-(5-methyl-2-pyridinyl)-N-(4-(pyrazolo[1,5-a]pyrimidin-7-ylthio)phenyl)-1-phthalazinamine], the IC50 on AuroraA-TPX2 and at AuroraB was under 100 nM throughout. Moreover, the concentration giving a half-maximal response (EC50) in the test with HeLa cells is under 100 nM.

Take `Cc1csc(-c2nnc(Nc3ccc(Sc4ncnn5cccc45)cc3)c3ccccc23)c1` [Example 26, 4-(4-methyl-2-thienyl)-N-(4-(pyrrolo[2,1-f][1,2,4]triazin-4-ylthio)phenyl)-1-phthalazinamine]: the IC50 is 500 to 2500 nM at AuroraA-TPX2 and under 100 nM on AuroraB. Further, the EC50 in the test with HeLa cells fell in the range of 100 to 500 nM.

Consider `Oc1cc2nccc(Sc3ccc(Nc4nnc(-c5ccc(Cl)cc5)c5ccccc45)cc3)n2n1` [Example 5, 7-(4-(4-(4-Chlorophenyl)phthalazin-1-ylamino)phenylthio)pyrazolo[1,5-a]pyrimidin-2-ol], for which the IC50 on AuroraA-TPX2 and on AuroraB was under 100 nM in each case. The EC50 in the test with HeLa cells was 100 to 500 nM.
